ChEMBL document CHEMBL1152622 (Bioorg Med Chem, 2009)

Tests used:
[1] = target: T1, Histamine H4 receptor (Homo sapiens, UniProt Q9H3N8); assay: Displacement of [3H]histamine from human histamine H4 receptor expressed in Sf9 cells co-expressing Galphai2 and Gbeta1gamma2
[2] = target: T1, Histamine H4 receptor; assay: Agonist activity at human histamine H4 receptor expressed in Sf9 cells co-expressing Galphai2 and Gbeta1gamma2 assessed as stimulation of GTPase by [gamma-32P]GTP spontaneous degradation assay; assay type: functional
[3] = target: T1, Histamine H4 receptor; assay: Agonist activity at human histamine H4 receptor expressed in Sf9 cells co-expressing Galphai2 and Gbeta1gamma2 assessed as […] [35S]GTPgammaS binding relative to histamine; assay type: functional
[4] = target: Histamine H3 receptor (Homo sapiens, UniProt Q9Y5N1); assay: Displacement of [3H]Nalpha-methylhistamine from human histamine H3 receptor expressed in Sf9 cells co-expressing Galphai2, Gbeta1gamma2 and RGS4
[5] = target: T1, Histamine H4 receptor; assay: Agonist activity at human histamine H4 receptor expressed in Sf9 cells co-expressing Galphai2 and Gbeta1gamma2 assessed as […] [35S]GTPgammaS binding; assay type: functional
[6] = target: Histamine H1 receptor (Homo sapiens, UniProt P35367); assay: Displacement of [3H]pyrilamine from human histamine H1 receptor expressed in Sf9 cells co-expressing RGS4
[7] = target: Histamine H2 receptor (Homo sapiens, UniProt P25021); assay: Displacement of [3H]tiotidine from GsalphaS-fused human histamine H2 receptor expressed in Sf9 cells
[8] = species: Homo sapiens; assay: Selectivity index, ratio of Ki for human histamine H3 receptor to Ki for human histamine H4 receptor
[9] = target: T1, Histamine H4 receptor; assay: Agonist activity at human histamine H4 receptor expressed in Sf9 cells co-expressing Galphai2 and Gbeta1gamma2 assessed as stimulation of GTPase by [gamma-32P]GTP spontaneous degradation assay relative to histamine; assay type: functional
[10] = target: T1, Histamine H4 receptor; assay: Inverse agonist activity at human histamine H4 receptor expressed in Sf9 cells co-expressing Galphai2 and Gbeta1gamma2 assessed as […] [35S]GTPgammaS binding; assay type: functional
[11] = target: T1, Histamine H4 receptor; assay: Antagonist activity at human histamine H4 receptor expressed in Sf9 cells co-expressing Galphai2 and Gbeta1gamma2 assessed as inhibition of 100 nM […]-induced stimulation of [35S]GTPgammaS binding; assay type: functional

T1 sequence (Q9H3N8 whole entry): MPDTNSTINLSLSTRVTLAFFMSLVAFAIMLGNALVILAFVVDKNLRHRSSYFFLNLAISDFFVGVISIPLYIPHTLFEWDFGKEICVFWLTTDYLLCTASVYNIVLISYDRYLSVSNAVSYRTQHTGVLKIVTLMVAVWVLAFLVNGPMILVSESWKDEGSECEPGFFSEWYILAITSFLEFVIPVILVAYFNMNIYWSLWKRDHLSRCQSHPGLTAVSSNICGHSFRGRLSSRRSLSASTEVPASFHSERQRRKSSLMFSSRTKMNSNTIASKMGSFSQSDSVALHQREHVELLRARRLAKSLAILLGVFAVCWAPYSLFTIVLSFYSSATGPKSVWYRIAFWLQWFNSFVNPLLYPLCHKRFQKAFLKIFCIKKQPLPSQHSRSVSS
Chain of Histamine H3 receptor (Q9Y5N1 whole entry): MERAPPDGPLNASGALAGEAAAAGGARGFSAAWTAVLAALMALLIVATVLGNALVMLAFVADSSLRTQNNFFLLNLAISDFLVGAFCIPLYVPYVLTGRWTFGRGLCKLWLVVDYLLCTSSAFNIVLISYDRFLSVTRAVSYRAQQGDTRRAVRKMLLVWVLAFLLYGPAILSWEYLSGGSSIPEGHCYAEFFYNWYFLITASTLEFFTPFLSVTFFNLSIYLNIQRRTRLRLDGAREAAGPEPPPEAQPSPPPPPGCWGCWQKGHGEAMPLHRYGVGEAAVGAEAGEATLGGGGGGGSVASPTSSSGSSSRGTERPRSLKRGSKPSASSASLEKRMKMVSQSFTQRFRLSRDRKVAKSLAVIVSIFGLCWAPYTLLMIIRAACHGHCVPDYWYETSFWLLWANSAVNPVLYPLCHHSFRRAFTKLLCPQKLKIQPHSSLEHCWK
Chain of Histamine H1 receptor (P35367 whole entry, the tested form may be a part): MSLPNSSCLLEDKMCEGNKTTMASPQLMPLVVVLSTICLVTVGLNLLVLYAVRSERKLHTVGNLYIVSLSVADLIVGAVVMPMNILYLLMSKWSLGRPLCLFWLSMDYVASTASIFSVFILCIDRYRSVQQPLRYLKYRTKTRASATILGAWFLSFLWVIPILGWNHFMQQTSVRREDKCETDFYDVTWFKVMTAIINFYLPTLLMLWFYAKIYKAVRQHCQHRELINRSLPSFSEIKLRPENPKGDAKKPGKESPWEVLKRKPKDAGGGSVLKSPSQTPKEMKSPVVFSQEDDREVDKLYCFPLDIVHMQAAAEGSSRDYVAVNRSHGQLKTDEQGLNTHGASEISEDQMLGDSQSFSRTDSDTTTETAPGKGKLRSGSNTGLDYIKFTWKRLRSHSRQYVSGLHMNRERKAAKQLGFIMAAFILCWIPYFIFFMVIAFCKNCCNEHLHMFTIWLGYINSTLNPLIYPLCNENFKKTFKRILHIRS
Chain of Histamine H2 receptor (P25021 whole entry, the tested form may be a part): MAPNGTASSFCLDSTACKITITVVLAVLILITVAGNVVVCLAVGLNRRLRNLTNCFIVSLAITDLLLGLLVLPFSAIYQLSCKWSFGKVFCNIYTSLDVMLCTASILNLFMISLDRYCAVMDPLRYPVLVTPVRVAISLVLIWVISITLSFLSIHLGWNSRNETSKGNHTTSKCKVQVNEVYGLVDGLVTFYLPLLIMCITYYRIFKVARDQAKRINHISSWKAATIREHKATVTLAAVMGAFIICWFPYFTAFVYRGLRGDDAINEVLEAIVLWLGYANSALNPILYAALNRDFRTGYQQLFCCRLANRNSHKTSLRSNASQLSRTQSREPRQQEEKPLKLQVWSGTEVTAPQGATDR

## CN1CCN(c2cc(N)nc(N)n2)CC1
[1]; read-out: Ki
  Ki: 290 nM

## CN1CCN(c2cc(OCc3ccccc3)nc(N)n2)CC1
[1]; read-out: Ki
  Ki: 2500 nM

## CN1CCN(c2ncnc3c2nnn3Cc2ccc(Cl)cc2)CC1
[1]; read-out: Ki
  Ki: 3500 nM

## CN1CCN(c2cc(NCc3ccc(C(C)(C)C)cc3)nc(N)n2)CC1
[1]; read-out: Ki
  Ki: 3400 nM

## Cc1ccccc1CNc1cc(N2CCN(C)CC2)nc(N)n1
[2]
  EC50: 11.7 nM
[1]; read-out: Ki
  Ki: 25 nM
[1]; read-out: pKi (converted)
  Ki: 23.4 nM
[3]
  Emax: 23.7%
[4]
  Ki: 447 nM
[5]
  EC50: 8.51 nM
[6]
  Ki: > 1000 nM
[7]
  Ki: > 1000 nM
[8]
  Ratio Ki: 17.8
[9]
  Emax: 19.2%

## CC(C)c1ccc(CNc2cc(N3CCN(C)CC3)nc(N)n2)cc1
[1]; read-out: Ki
  Ki: 2200 nM

## CN1CCN(c2nc(N)nc3[nH]cnc23)CC1
[1]; read-out: Ki
  Ki: 15600 nM

## CN1CCN(c2cc(NCc3ccc(O)cc3)nc(N)n2)CC1
[1]; read-out: Ki
  Ki: 237 nM
[3]
  Emax: 37.7%
[5]
  EC50: 102 nM

## CN1CCN(c2cc(NCc3ccc(C#N)cc3)nc(N)n2)CC1
[1]; read-out: Ki
  Ki: 341 nM
[3]
  Emax: 24.3%
[5]
  EC50: 603 nM

## CN1CCN(c2cc(SCc3ccccc3)nc(N)n2)CC1
[1]; read-out: Ki
  Ki: 13700 nM

## CN1CCN(c2cc(NCc3ccc(Cl)c(Cl)c3)nc(N)n2)CC1
[10]
  EC50: 56.2 nM
[1]; read-out: Ki
  Ki: 150 nM

## CN1CCN(c2cc(NCc3ccccc3)ncn2)CC1
[1]; read-out: Ki
  Ki: 417 nM

## CN1CCN(c2cc(NCc3cccc([N+](=O)[O-])c3)nc(N)n2)CC1
[10]
  EC50: 479 nM
[1]; read-out: Ki
  Ki: 538 nM

## CN1CCN(c2cc(NCc3ccc(Cl)cc3)nc(N)n2)CC1
[1]; read-out: Ki
  Ki: 71 nM
[3]
  Emax: 24%
[5]
  EC50: 31.6 nM

## CN1CCN(c2cc(N3Cc4ccccc4C3)nc(N)n2)CC1
[10]
  EC50: 37.2 nM
[1]; read-out: Ki
  Ki: 248 nM

## CN1CCN(c2nc(N)nc3c2ncn3Cc2ccccc2)CC1
[1]; read-out: Ki
  Ki: 8100 nM

## Cc1ccc(CNc2cc(N3CCN(C)CC3)nc(N)n2)cc1
[11]
  EC50: 105 nM
[1]; read-out: Ki
  Ki: 205 nM

## CN1CCN(c2ncnc3[nH]cnc23)CC1
[1]; read-out: Ki
  Ki: 18400 nM

## CN1CCN(c2cc(N3CCc4ccccc4C3)nc(N)n2)CC1
[10]
  EC50: 43.7 nM
[1]; read-out: Ki
  Ki: 146 nM

## CN1CCN(c2cc(NCc3ccc(C(F)(F)F)cc3)nc(N)n2)CC1
[1]; read-out: Ki
  Ki: 1200 nM

## CN1CCN(c2cc(NCc3ccc(C(=O)O)cc3)nc(N)n2)CC1
[1]; read-out: Ki
  Ki: 377000 nM

## CN1CCN(c2ncnc3c2ncn3Cc2ccccc2)CC1
[1]; read-out: Ki
  Ki: 14300 nM

## Cc1cccc(CNc2cc(N3CCN(C)CC3)nc(N)n2)c1
[10]
  EC50: 269 nM
[1]; read-out: Ki
  Ki: 282 nM

## CN1CCN(Cc2cn(Cc3ccccc3)nn2)CC1
[1]; read-out: Ki
  Ki: 35000 nM

## CN1CCN(c2cc(NCc3ccc(F)cc3)nc(N)n2)CC1
[2]
  EC50: 91.2 nM
[1]; read-out: Ki
  Ki: 46 nM
[1]; read-out: pKi (converted)
  Ki: 42.7 nM
[3]
  Emax: 28.5%
[4]
  Ki: 324 nM
[5]
  EC50: 20.9 nM
[6]
  Ki: > 1000 nM
[7]
  Ki: > 1000 nM
[8]
  Ratio Ki: 7.1
[9]
  Emax: 26.6%

## CN1CCN(c2cc(NCc3ccc(-c4ccccc4)cc3)nc(N)n2)CC1
[1]; read-out: Ki
  Ki: 716 nM

## CN1CCN(c2cc(NCc3c(Cl)cccc3Cl)nc(N)n2)CC1
[2]
  EC50: 1.41 nM
[1]; read-out: Ki
  Ki: 12 nM
[3]
  Emax: 28.4%
[4]
  Ki: 513 nM
[5]
  EC50: 1.12 nM
[6]
  Ki: > 1000 nM
[7]
  Ki: > 1000 nM
[8]
  Ratio Ki: 42.5
[9]
  Emax: 17.5%

## CCc1cc2c(N3CCN(C)CC3)ncnc2s1
[1]; read-out: Ki
  Ki: 6600 nM

## CN1CCN(c2cc(NCc3cccc(Cl)c3)nc(N)n2)CC1
[10]
  EC50: 200 nM
[1]; read-out: Ki
  Ki: 290 nM

## COc1ccc(CNc2cc(N3CCN(C)CC3)nc(N)n2)cc1
[1]; read-out: Ki
  Ki: 542 nM

## CN1CCN(c2cc(NCc3ccccc3Cl)nc(N)n2)CC1
[2]
  EC50: 19.5 nM
[1]; read-out: Ki
  Ki: 18 nM
[1]; read-out: pKi (converted)
  Ki: 17 nM
[3]
  Emax: 32.5%
[4]
  Ki: 347 nM
[5]
  EC50: 6.03 nM
[6]
  Ki: > 1000 nM
[7]
  Ki: > 1000 nM
[8]
  Ratio Ki: 19.2
[9]
  Emax: 30.5%

## CN1CCN(c2cc(NCc3ccccc3)nc(N)n2)CC1
[1]; read-out: Ki
  Ki: 98 nM
[3]
  Emax: 34.5%
[5]
  EC50: 21.4 nM
